From patent publication US7786108B2, “Compounds and method for treating dyslipidemia” (Eli Lilly and Company, priority 2004, dated 2010) come the findings set out here.

Structures can show the parent of a compound that is named as a salt.

In this experiment the test system is transgenic mice that express both human CETP and human apolipoprotein A-1. Description: In vivo assay of plasma lipids: elevation of HDL cholesterol. As to conditions: Mus musculus; single oral dose 30 mg/kg; HDL cholesterol in serum at 8 hr after administration; relative to a control; read-out: % HDL cholesterol increase. An excerpt: Additional serum lipids can be analyzed by enzymatic methods.
Consider `Cc1cc2c(cc1C(F)(F)F)N(CCO)CCC[C@@H]2N(Cc1cc(C(F)(F)F)cc(C(F)(F)F)c1)c1nnn(C)n1` [Example 33, (S)-2-{5-[(3,5-Bis-trifluoromethyl-benzyl)-(2-methyl-2H-tetrazol-5-yl)-amino]-7-methyl-8-trifluoromethyl-2,3,4,5-tetrahydro-benzo[b]azepin-1-yl}-ethanol], for which the change in vivo at 30 mg/kg was found to be 354%.

Consider `Cc1cc2c(cc1C(F)(F)F)N(Cc1ccc(C#N)cc1)CCC[C@@H]2N(Cc1cc(C(F)(F)F)cc(C(F)(F)F)c1)c1nnn(C)n1` [Example 192, (S)-4-{5-[(3,5-bis-trifluoromethyl-benzyl)-(2-methyl-2H-tetrazol-5-yl)-amino]-7-methyl-8-trifluoromethyl-2,3,4,5-tetrahydro-benzo[b]azepin-1-ylmethyl}-benzonitrile], for which the change in vivo at 30 mg/kg is 102%.

For the compound `Cc1cc2c(cc1C(F)(F)F)N(Cc1cncc(C(=O)O)c1)CCC[C@@H]2N(Cc1cc(C(F)(F)F)cc(C(F)(F)F)c1)c1nnn(C)n1` [Example 142, (S)-5-{5-[(3,5-Bis-trifluoromethyl-benzyl)-(2-methyl-2H-tetrazol-5-yl)-amino]-7-methyl-8-trifluoromethyl-2,3,4,5-tetrahydro-benzo[b]azepin-1-ylmethyl}-nicotinic acid hydrochloride], the change in vivo at 30 mg/kg is 90%.

For the compound `Cc1cc2c(cc1C(F)(F)F)N(CC1CC1)CCC[C@@H]2N(Cc1cc(Cl)cc(C(F)(F)F)c1)c1nnn(C)n1` [Example 196, (S)-(3-Chloro-5-trifluoromethyl-benzyl)-(1-cyclopropylmethyl-7-methyl-8-trifluoromethyl-2,3,4,5-tetrahydro-1H-benzo[b]azepin-5-yl)-(2-methyl-2H-tetrazol-5-yl)-amine], the change in vivo at 30 mg/kg was determined as 126%.

For the compound `Cn1nnc(N(Cc2cc(C(F)(F)F)cc(C(F)(F)F)c2)[C@H]2CCCN(CC3CCCC3)c3cc4c(cc32)OC(F)(F)O4)n1` [Example 178, (S)-(3,5-Bis-trifluoromethyl-benzyl)-(5-cyclopentylmethyl-2,2-difluoro-6,7,8,9-tetrahydro-5H-1,3-dioxa-5-aza-cyclohepta[f]inden-9-yl)-(2-methyl-2H-tetrazol-5-yl)-amine], the change in vivo at 30 mg/kg worked out at 128%.

With `Cn1nnc(N(Cc2cc(C(F)(F)F)cc(C(F)(F)F)c2)[C@H]2CCCN(CC3CCCC3)c3cc4c(cc32)CCCC4)n1` [Example 77, (3,5-Bis-trifluoromethyl-benzyl)-(1-cyclopentylmethyl-2,3,4,5,7,8,9,10-octahydro-1H-naphtho[2,3-b]azepin-5-yl)-(2-methyl-2H-tetrazol-5-yl)-amine], the change in vivo at 30 mg/kg turned out to be 229%.

For the compound `Cc1cc2c(c(C)c1C(F)(F)F)N(C[C@H]1CC[C@H](CC(=O)O)CC1)CCC[C@@H]2N(Cc1cc(C(F)(F)F)cc(C(F)(F)F)c1)c1nnn(C)n1` [Example 153, (S)-(4-{5-[(3,5-Bis-trifluoromethyl-benzyl)-(2-methyl-2H-tetrazol-5-yl)-amino]-7,9-dimethyl-8-trifluoromethyl-2,3,4,5-tetrahydro-benzo[b]azepin-1-ylmethyl}-cyclohexyl)-acetic acid], the change in vivo at 30 mg/kg stood at 165%.

For the compound `CC(C)OC(=O)N1CCCC(N(Cc2cc(C(F)(F)F)cc(C(F)(F)F)c2)c2nnn(C)n2)c2cc3c(cc21)CCC3` (racemic) [Example 50, (+/−)-9-[(3,5-Bis-trifluoromethyl-benzyl)-(2-methyl-2H-tetrazol-5-yl)-amino]-2,3,6,7,8,9-hexahydro-1H-5-aza-cyclohepta[f]indene-5-carboxylic acid isopropyl ester], the change in vivo at 30 mg/kg was 127%.

As to `Cc1cc2c(c(C)c1C(F)(F)F)N(Cc1ccc(C(=O)O)cc1)CCC[C@@H]2N(Cc1cc(C(F)(F)F)cc(C(F)(F)F)c1)c1nnn(C)n1` [Example 202, (S)-4-{5-[(3,5-Bis-trifluoromethyl-benzyl)-(2-methyl-2H-tetrazol-5-yl)-amino]-7,9-dimethyl-8-trifluoromethyl-2,3,4,5-tetrahydro-benzo[b]azepin-1-ylmethyl}-benzoic acid], the change in vivo at 30 mg/kg worked out at 206%.

With `CCC(OC(=O)N1CCCC(N(Cc2cc(C(F)(F)F)cc(C(F)(F)F)c2)c2nnn(C)n2)c2cc(C)c(C(F)(F)F)cc21)C(C)C` (racemic) [Example 25, (+/−)-5-[(3,5-Bis-trifluoromethyl-benzyl)-(2-methyl-2H-tetrazol-5-yl)-amino]-7-methyl-8-trifluoromethyl-2,3,4,5-tetrahydro-benzo[b]azepine-1-carboxylic acid 1-ethyl-2-methyl-propyl ester], the change in vivo at 30 mg/kg stood at 142%.

As to `Cc1c2c(cc3c1N(Cc1ccc(C(=O)O)cc1)CCC[C@@H]3N(Cc1cc(C(F)(F)F)cc(C(F)(F)F)c1)c1nnn(C)n1)COC2` [Example 166, (S)-4-{9-[(3,5-Bis-trifluoromethyl-benzyl)-(2-methyl-2H-tetrazol-5-yl)-amino]-4-methyl-1,3,6,7,8,9-hexahydro-2-oxa-5-aza-cyclohepta[f]inden-5-ylmethyl}-benzoic acid], the change in vivo at 30 mg/kg was determined as 102%.

As for `Cc1c2c(cc3c1N(C[C@H]1CC[C@H](CC(=O)O)CC1)CCC[C@@H]3N(Cc1cc(C(F)(F)F)cc(C(F)(F)F)c1)c1nnn(C)n1)COC2` [Example 165, (S)-(4-{9-[(3,5-Bis-trifluoromethyl-benzyl)-(2-methyl-2H-tetrazol-5-yl)-amino]-4-methyl-1,3,6,7,8,9-hexahydro-2-oxa-5-aza-cyclohepta[f]inden-5-ylmethyl}-cyclohexyl)-acetic acid], the change in vivo at 30 mg/kg was determined as 177%.

For the compound `Cc1cc2c(cc1C(F)(F)F)N(C(=O)OC(C)(C)C)CCC[C@@H]2N(Cc1cc(C(F)(F)F)cc(C(F)(F)F)c1)c1nnn(C)n1` [Example 17, (S)-5-[(3,5-Bis-trifluoromethyl-benzyl)-(2-methyl-2H-tetrazol-5-yl)-amino]-7-methyl-8-trifluoromethyl-2,3,4,5-tetrahydro-benzo[b]azepine-1-carboxylic acid tert-butyl ester], the change in vivo at 30 mg/kg is 73%.

Consider `Cc1cc2c(cc1C(F)(F)F)N(C(=O)OC1CCCC1)CCC[C@@H]2N(Cc1cc(C(F)(F)F)cc(C(F)(F)F)c1)c1nnn(C)n1` [Example 20, (S)-5-[(3,5-Bis-trifluoromethyl-benzyl)-(2-methyl-2H-tetrazol-5-yl)-amino]-7-methyl-8-trifluoromethyl-2,3,4,5-tetrahydro-benzo[b]azepine-1-carboxylic acid cyclopentyl ester], for which the change in vivo at 30 mg/kg amounted to 72%.

Regarding `Cc1cc2c(cc1C(F)(F)F)N(CC1CCCC1)CCC[C@@H]2N(Cc1cc(C(F)(F)F)cc(C(F)(F)F)c1)c1nnn(C)n1` [Example 3, (S)-(3,5-bistrifluoromethylbenzyl)-(1-cyclopentylmethyl-7-methyl-8-trifluoromethyl-2,3,4,5-tetrahydro-1H-benzo[b]azepin-5-yl)-(2-methyl-2H-tetrazol-5-yl)amine], the change in vivo at 30 mg/kg came to 71%.

Take `Cc1cc2c(c(C)c1C(F)(F)F)N(CCC(C)(C)CC(=O)O)CCC[C@@H]2N(Cc1cc(C(F)(F)F)cc(C(F)(F)F)c1)c1nnn(C)n1` [Example 154, (S)-5-{5-[(3,5-Bis-trifluoromethyl-benzyl)-(2-methyl-2H-tetrazol-5-yl)-amino]-7,9-dimethyl-8-trifluoromethyl-2,3,4,5-tetrahydro-benzo[b]azepin-1-yl}-3,3-dimethyl-pentanoic acid]: the change in vivo at 30 mg/kg amounted to 99%.
